Data as given in paper PMC12527173, “Cytotoxic, anti-inflammatory, antioxidant, and anti-glyoxalase-I evaluation of chelating substances: In silico and in vitro study” (PLOS One, 2025).
Where two headings read alike, the source gives them in different places.

Key:
[1] = system: SW480 colorectal cancer cell line; experiment: SRB cytotoxicity assay, SW480; format: cell-based; settings: Homo sapiens, 72 h incubation, n = 12, read-out: Cytotoxicity (as of %Control) IC50 value SW480
Procedure, shortened: (§1)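 Viability is measured colorimetrically with sulforhodamine B after co-incubation with 5–200 μg/mL of test or reference compound. Data are plotted as percent of control optical density, and regression yields IC50.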

[2] = system: Human PC3 prostate cancer cell line; experiment: SRB cytotoxicity assay, PC3; format: cell-based; settings: 72 h incubation, n = 12, read-out: Cytotoxicity (as of %Control) IC50 value PC3 prostate malignancy
Procedure, shortened: as §1

[3] = SRB cytotoxicity assay, normal PDL fibroblasts; format: cell-based; settings: normal periodontal ligament (PDL) fibroblasts, 72 h incubation, 0.1–200 µM range, read-out: Cytotoxicity (as of %Control) IC50 value PDL fibroblasts
Procedure, shortened: as §1

[4] = system: A375 human skin cancer cell line; experiment: SRB cytotoxicity assay, A375; format: cell-based; settings: A-375, 72 h incubation, n = 12, read-out: Cytotoxicity (as of %Control) IC50 value A375 skin melanoma
Procedure, shortened: as §1

[5] = biological target: T1, human recombinant Glo-I enzyme (rhGlo-I) (Homo sapiens, UniProt Q04760); experiment: Glyoxalase-I (Glo-I) enzyme inhibition assay; format: biochemical
T1 construct: N-terminal Met and 6-His tag (N); purchased R&D Systems; host or cells: E. coli
T1 sequence (Q04760 2-184 limits assumed): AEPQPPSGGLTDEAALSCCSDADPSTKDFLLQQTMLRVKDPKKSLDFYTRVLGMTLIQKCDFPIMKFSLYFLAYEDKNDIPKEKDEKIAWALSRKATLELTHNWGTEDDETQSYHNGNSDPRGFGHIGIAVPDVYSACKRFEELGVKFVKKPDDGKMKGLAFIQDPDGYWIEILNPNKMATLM
Protocol: Solvents and chemicals were procured from Sigma-Aldrich Co. and Acros (ThermoFisher Scientific, New Jersey, USA). […] The enzyme was obtained from R&D Systems® Corporation in the USA. Synthetic compounds were tested for their inhibitory effects on the enzyme using a 10 mM DMSO stock concentration in triplicates. The manufacturer’s protocol from R & D Systems, Inc. in Minneapolis, MN, USA was followed for the in vitro experiments. The reconstituted Glo-I enzyme (0.5 mg/mL) was thawed after being stored at −70°C in sterile deionized water. […] The monitoring was done at a wavelength of 240 nm for 200 seconds at 37°C. The substrate mixture was freshly concocted with a concentration of 100 mM glutathione and 100 mM methylglyoxal (MG) in assay buffer containing 0.5 M sodium phosphate dibasic/monobasic. It was then left undisturbed at room temperature for 15 minutes […]. The selected compounds for investigation are subsequently produced in testing concentration ranges using a 0.1 M solution of sodium phosphate dibasic/monobasic with a pH range of 7–7.2. The blank contained an assay buffer with MG substrate. The test compounds were combined with human recombinant Glo-I (50 µM) in a 96-well plate to determine their kinetic behavior.

[6] = system: cancer cell lines (panel); experiment: SRB cytotoxicity assay, ranges stated over several cancer cell lines; format: cell-based; settings: Homo sapiens
Protocol: The cancer cell lines were cultured in DMEM supplemented with 10% FBS (Bio Whittaker, Verviers, Belgium), HEPES Buffer (10 mM), gentamicin (50 µg/mL), L-glutamine (100 μg/mL), streptomycin ([…]), penicillin (100 µg/mL), and 4-(2-hydroxyethyl)-1-piperazineethanesulfonic acid (HEPES) Buffer (Sigma, St. Luis, MO, USA). The Sulforhodamine B used was obtained from Santa Cruz Biotechnology, Inc. in Texas, USA. […] Periodontal ligament fibroblasts (PDL) were utilized to assess specific cytotoxicity. Cancer cell lines that have survived offer several benefits. They provide a consistent and uninterrupted source of cells, so bypassing any ethical concerns related to the use of human tissue. Additionally, they are cost-effective. The cytotoxicity levels were assessed using the Sulforhodamine B (SRB) colorimetric assay, provided by Santa Cruz Biotechnology, Inc. in Texas, USA. The Spectro Scan 80D UV-VIS spectrophotometer, manufactured by Sedico Ltd. in Nicosia, Cyprus, was employed for this cytotoxicity screening. The cells were co-incubated with substances or a reference agent at various doses ranging from 5 to 200 μg/mL. […] The reduction in cell viability was analyzed by plotting Dose-response curves and expressing the data as a percentage of the control optical density. The IC50 values were obtained using regression analysis.

[7] = DPPH free radical scavenger assay; settings: DPPH radical scavenging; n = 12
Source text: This approach relies on the reduction of the radicals, which causes a change in colour from oxidized purple to reduced yellow. Primarily, Diphenyl-2-picryl-hydrazyl (DPPH) is reduced in a solution of methanol (MeOH) when a chemical that donates hydrogen is present. This reduction is due to the creation of the non-radical form DPPH-H. The alteration in colour can be precisely assessed by employing a spectrophotometer within the wavelength range of 515–520 nm. Unlike other assays for radical scavenging, the DPPH radical is stable and yields consistent spectroscopic data. A 0.2 mM DPPH solution was diluted with MeOH and then combined with treatment compounds and ascorbic acid in a 1:1 concentration ratio using a 96-well plate. […] The solution was then incubated for one hour, isolated from light. Subsequently, the alteration in absorbance at a wavelength of 517 nm was quantified using a microplate reader manufactured by Bio-Tek Instrument in the United States. Ascorbic acid served as a strong and traditional benchmark for comparing the effectiveness of radical scavenging agents. The DPPH radical scavenging activity inhibition was calculated using the following equation, where A denotes photometric absorbance: The formula to calculate the percentage difference between a control and a sample is: (A control – A sample)/ A control x 100% [71, 72].

[8] = read-out: Trial one (%inhibtion)
[9] = read-out: Trial three (%inhibtion)
[10] = read-out: Trial two (%inhibtion)

- inhibition at 3.125 µM [5, 8]: 13.2%
- inhibition at 3.125 µM [5, 9]: 7.44%
- inhibition at 3.125 µM [5, 10]: 2.77%
- inhibition at 6.25 µM [5, 8]: 22.3%
- inhibition at 6.25 µM [5, 9]: 14.2%
- inhibition at 6.25 µM [5, 10]: 16.5%
- inhibition at 12.5 µM [5, 8]: 29.4%
- inhibition at 12.5 µM [5, 9]: 24.7%
- inhibition at 12.5 µM [5, 10]: 25%
- inhibition at 25 µM [5, 8]: 39.7%
- inhibition at 25 µM [5, 9]: 33.7%
- inhibition at 25 µM [5, 10]: 38.4%
- inhibition at 50 µM [5, 8]: 52.1%
- inhibition at 50 µM [5, 9]: 38.8%
- inhibition at 50 µM [5, 10]: 51.1%
- Maximum (descriptive statistics of enzyme inhibition) ([5]; highest mean inhibition over the tested concentrations, in % (unit assumed)): 47.33
- IC50 ([5]; human recombinant Glo-I, triplicates, read-out: IC50 µM ± SD): 43.5 ± 15.6 µM
- Minimum (descriptive statistics of enzyme inhibition) ([5]; lowest mean inhibition over the tested concentrations, in % (unit assumed)): 7.808
- IC50 [7]: 99.3 ± 15.5 µM
Compound: CC(/C=C/C(=O)NO)=C\[C@@H](C)C(=O)c1ccc(N(C)C)cc1 [Trichostatin A, reference compound]
- IC50 [1]: 44.3 ± 4.67 µM
- IC50 [2]: 47.5 ± 3.96 µM
- IC50 at 72 h [3]: > 200 µM
- IC50 [4]: 5.6 ± 0.6 µM
- IC50 ([6]; Pancreatic cancer cell, after 72 hours of incubation, read-out: IC50, colorectal and pancreatic cancer cells): ≤ 27 µM
- IC50 ([6]; A375, A549, PC3, MCF7, T47D, HeLa, read-out: IC50 range, decreases in viability in other cancer cell cultures): 1.4 to 14.7 µM
- IC50 ([6]; CACO2, HCT116, SW620, HT29, read-out: IC50 range, anti-proliferation in colorectal cancer cells): 14 to 27 µM
- IC50 ([6]; Table 3 cell lines, read-out: IC50, skin melanoma, lung carcinoma, mammary and cervix adenocarcinomas): < 10 µM
